Laboratory results: article PMC9916770, “Lycorine Carbamate Derivatives for Reversing P-glycoprotein-Mediated Multidrug Resistance in Human Colon Adenocarcinoma Cells” (International Journal of Molecular Sciences, 2023)

Columns and labels:
[1] = test system: Colo320 cells; assay: MTT antiproliferative assay, resistant cells; format: cell-based, human; conditions: Homo sapiens, COLO 320; resistant Colo320, MTT, 72 h, mean ± SD; read-out: IC50 Colo320 (B)
Description: (§1) The human colon adenocarcinoma cell lines Colo205 doxorubicin-sensitive (CCL-222, ATCC, Manassas, VA, USA) and the resistant Colo320/MDR-LRP expressing P-gp were purchased from LGC Promochem (Teddington, UK). The MRC-5 human embryonal lung fibroblast cell line (CCL-171, ATCC) was purchased from Sigma-Aldrich (Merck KGaA, Darmstadt, Germany). The human colon adenocarcinoma cells (Colo205 and Colo320) were cultured in an RPMI 1640 medium supplemented with 10% fetal bovine serum (FBS), 2 mM L-glutamine, 1 mM Na-pyruvate, and 100 mM HEPES. The semi-adherent human colon cancer cells were detached with a trypsin-Versene (EDTA) solution for 5 min at 37 °C. The MRC-5 human embryonal lung fibroblast cells were cultured in EMEM containing 4.5 g/L of glucose and supplemented with a non-essential amino acid mixture, a selection of vitamins, and 10% FBS. The cell lines were incubated at 37 °C, 5% CO2, and 95% air atmosphere.
(§2) The antiproliferative effect of the compounds was tested in decreasing serial dilutions of compounds (starting with 100 µM, then two-fold serial dilution) on human cell lines (Colo205, Colo320, and MRC-5) in 96-well flat-bottomed microtiter plates. Firstly, the compounds were diluted in 100 µL of the medium, and then 6 × 10^3 cells (Colo205 and Colo320), in 100 µL of medium, were added to each well, excluding the medium control wells. The MRC-5 adherent cell line was seeded in the EMEM medium for at least 4 h before the assay. The two-fold serial dilutions of the compounds were made in a separate plate (100–0.19 μM) and then transferred to the plates containing the adherent corresponding cell line. Culture plates were incubated at 37 °C for 72 h, and at the end of the incubation period, 20 μL of MTT (thiazolyl blue tetrazolium bromide) solution (from a 5 mg/mL stock solution) was added to each well and incubated for an additional 4 h. Then, 100 μL of sodium dodecyl sulfate (SDS) solution (10% SDS in 0.01 M HCl) was added to each well, and the plates were further incubated at 37 °C overnight in a CO2 incubator. Cell growth was determined by measuring the optical density (OD) at 540/630 nm with a Multiscan EX ELISA reader (Thermo Labsystems, Cheshire, WA, USA). […] IC50 values and the standard deviation (SD) of triplicate experiments were calculated by using GraphPad Prism 5 software for Windows. Doxorubicin (2 mg/mL, Teva Pharmaceuticals, Budapest, Hungary) was used as a positive control and the vehicle DMSO as the negative control. (1) IC50=[ODsample−ODmedium control/ODcell control−ODmedium control]×100
(§3) The relative resistance (RR) was calculated as the ratio of the IC50 value in the resistant cancer cells and the IC50 in the sensitive cancer cell lines. The selectivity indexes (SI) were calculated as the ratio of the IC50 values in the non-tumor cells and the IC50 in the cancer cell lines. The activity of the compounds toward cancer cells is considered strongly selective if the selectivity index (SI) value is higher than 6, moderately selective if 3 < SI < 6, slightly selective if 1 < SI < 3, and non-selective if SI is lower than 1.

[2] = test system: Colo205 cells; assay: MTT antiproliferative assay, sensitive cells; format: cell-based, human; conditions: Homo sapiens, COLO 205; sensitive Colo205, MTT, 72 h, mean ± SD
Description: as §1, §2, §3

[3] = test system: MRC-5 cells; assay: MTT antiproliferative assay, normal lung fibroblasts; format: cell-based; conditions: Homo sapiens, normal embryonal lung fibroblasts, 72 h, mean ± SD, read-out: IC50 MCR-5 (C)
Description: as §1, §2, §3

Structure (SMILES) | IC50 [1] [µM] | IC50 [2] [µM] | IC50 [3] [µM]
O=C(OC1C=C2CCN3Cc4cc5c(cc4C(C1O)C23)OCO5)N1CCOCC1 (stereo not drawn) [Compound 3, Lycorine 2-yl morpholine-4-carboxylate] | > 100 | > 100 | > 100
COc1ccc(CCNC(=O)OC2C=C3CCN4Cc5cc6c(cc5C(C2OC(=O)NCCc2ccc(OC)cc2)C34)OCO6)cc1 (stereo not drawn) [Compound 4, Lycorine 1,2-diyl bis [(4-methoxyphenethyl)carbamate]] | > 100 | > 100 | > 100
Cc1ccc(CNC(=O)OC2C=C3CCN4Cc5cc6c(cc5C(C2O)C34)OCO6)cc1 (stereo not drawn) [Compound 6, Lycorine 2-yl (4-methylbenzyl)carbamate] | > 100 | > 100 | > 100
O=C(NCc1ccc2c(c1)OCO2)OC1C=C2CCN3Cc4cc5c(cc4C(C1OC(=O)NCc1ccc4c(c1)OCO4)C23)OCO5 (stereo not drawn) [Compound 7, Lycorine 1,2-diyl bis[(piperonyl)carbamate]] | > 100 | > 100 | > 100
O=C(NCc1ccc2c(c1)OCO2)OC1C=C2CCN3Cc4cc5c(cc4C(C1O)C23)OCO5 (stereo not drawn) [Compound 8, Lycorine 2-yl (piperonyl)carbamate] | > 100 | > 100 | > 100
O=C(NCCc1ccccc1)O[C@H]1C=C2CCN3Cc4cc5c(cc4[C@H]([C@@H]1O)[C@@H]23)OCO5 [Compound 10, lycorine 2-yl phenethylcarbamate] | > 100 | > 100 | > 100
COc1ccc(CNC(=O)OC2C=C3CCN4Cc5cc6c(cc5C(C2O)C34)OCO6)cc1 (stereo not drawn) [Compound 11, Lycorine 2-yl (4-methoxylbenzyl)carbamate] | > 100 | > 100 | > 100

Second part, led by results:

IC50 [1] [µM] | IC50 [2] [µM] | Structure (SMILES) | IC50 [3] [µM]
> 100 | > 100 | CN(Cc1ccccc1)C(=O)OC1C=C2CCN3Cc4cc5c(cc4C(C1O)C23)OCO5 (stereo not drawn) [Compound 12, Lycorine 2-yl benzyl(methyl)carbamate] | > 100
> 100 | > 100 | O=C(OC1C=C2CCN3Cc4cc5c(cc4C(C1OC(=O)N1CCCC1)C23)OCO5)N1CCCC1 (stereo not drawn) [Compound 14, Lycorine 1,2-diyl bis(pyrrolidine-1-carboxylate)] | > 100
> 100 | > 100 | O=C(OC1C=C2CCN3Cc4cc5c(cc4C(C1O)C23)OCO5)N1CCCC1 (stereo not drawn) [Compound 15, Lycorine 2-yl pyrrolidine-1-carboxylate] | > 100
> 100 | > 100 | O=C(OC1C=C2CCN3Cc4cc5c(cc4C(C1O)C23)OCO5)N1CCCCC1 (stereo not drawn) [Compound 17, Lycorine 2-yl piperidine-1-carboxylate] | > 100
> 100 | > 100 | CC(C)(C)c1ccc(CNC(=O)OC2C=C3CCN4Cc5cc6c(cc5C(C2OC(=O)NCc2ccc(C(C)(C)C)cc2)C34)OCO6)cc1 (stereo not drawn) [Compound 18, Lycorine 1,2-diyl bis[(4-(tert-butyl)benzyl)carbamate]] | > 100
> 100 | > 100 | O=C(NCc1ccccc1F)OC1C=C2CCN3Cc4cc5c(cc4C(C1OC(=O)NCc1ccccc1F)C23)OCO5 (stereo not drawn) [Compound 20, Lycorine 1,2-diyl bis[(2-fluorobenzyl)carbamate]] | > 100
> 100 | > 100 | O=C(NCc1ccccc1F)OC1C=C2CCN3Cc4cc5c(cc4C(C1O)C23)OCO5 (stereo not drawn) [Compound 21, Lycorine 2-yl (2-fluorobenzyl)carbamate] | > 100
> 100 | > 100 | O=C(NCc1cccc(C(F)(F)F)c1)O[C@H]1[C@H]2c3cc4c(cc3CN3CCC(=C[C@@H]1OC(=O)NCc1cccc(C(F)(F)F)c1)[C@H]23)OCO4 [Compound 22, Lycorine 1,2-diyl bis[(3-(trifluoromethyl)benzyl)carbamate]] | > 100
